Measurements as given in article PMC9000480, “Enhancement of the Anti-Inflammatory Activity of NSAIDs by Their Conjugation with 3,4,5-Trimethoxybenzyl Alcohol” (Molecules, 2022).
Marks after values point to notes of the source that are not given here.

Key:
[1] = test system: carrageenan-induced rat paw edema; experiment: carrageenan-induced rat paw edema; assay type: in vivo; settings: i.p. 0.15 mmol/kg, 3.5 h post carrageenan, female rats, vs controls given carrageenan only; for inhibition in vivo at 150 µmol/kg: Rattus norvegicus, ip, 3.5 h
Procedure: Carrageenan-induced inflammation model has significant value for evaluating anti-inflammatory agents. Carrageenan administration causes an acute and local inflammatory response. In the early phase (0–1 h), bradykinin, histamine, tachykinins, complement and reactive oxygen and nitrogen species are involved, whereas prostaglandins and various cytokines such as IL-1β, TNF-α are released in the second phase, more than one hour after administration.
Total of 0.1 mL of an aqueous solution of carrageenan (1% w/v) was injected i.d. into the right hind paw of rats, with the left paw serving as control. The tested compounds (suspended in water with a few drops of Tween 80) were given i.p. (0.15 mmol/kg) 5 min before the carrageenan administration. After 3.5 h, the hind paws were excised and weighed separately. The produced edema was estimated as paw weight increase.

[2] = preliminary stability in acetone-water (TLC); assay type: physicochemical; settings: 4:1 acetone-water, 1 mM, 37 °C, up to 72 h
Procedure: (§1) In a preliminary stability control experiment, compound 16, with the highest anti-inflammatory activity, was dissolved in an acetone-water mixture and incubated for 72 h at 37 °C. Samples were tested by thin layer chromatography (TLC) at the time of the preparation and after 2.5, 5, 24, 48, and 72 h. The same experiment was repeated, but plasma from a healthy rat was added, and tested by TLC at the time of preparation and after 24 h of incubation at 37 °C.
(§2) A solution of 16 in a 4:1 acetone–water mixture (1 mM) was prepared and 5 μL of this were applied on a TLC silica gel aluminum sheet and developed with petroleum ether-ethyl acetate (1:1), at the time of preparation and after 2.5, 5, 24, 48, and 72 h of incubation (37 °C). The same experiment was repeated, adding 1 mL of rat plasma. TLC was performed at the time of preparation and after 24 h.

[3] = preliminary stability with rat plasma (TLC); assay type: in vitro ADME; settings: acetone-water with rat plasma added, 37 °C, 24 h
Procedure: as §1, §2

ovine COX-1 = test system: T1, ovine COX-1; experiment: COX Inhibitor Screening Assay kit, COX-1; assay type: biochemical; settings: compound 0.05 μM, arachidonic acid 0.1 μM
T1 construct: purchased Cayman Chemical Co., Ann Arbor, MI, USA
Excerpt: […]. κ-Carrageenan and lipoxygenase type I-B from soybean were purchased from Sigma (St. Louis, MO, USA). COX inhibition was estimated using the “COX Inhibitor Screening Assay” kit (Cayman Chemical Co., Ann Arbor, MI, USA). For the in vivo experiments, female Wistar rats (160–180 g, 4–5 months old) were kept in the Centre of the School of Veterinary Medicine (EL54 BIO42), Aristotelian University of Thessaloniki, which is registered by the official state veterinary authorities (presidential degree 56/2013, in harmonization with the European Directive 2010/63/EEC). The Animal Ethics Committee of the Prefecture of Central Macedonia (no. 270079/2500) approved the experimental protocols.
(§3) The effect of compounds on COX-1 and COX-2 activity was measured using a commercial kit and applying the instructions of the manufacturer. The kit uses ovine COX-1 and human recombinant COX-2 enzymes. The assay measures PGF2a produced by SnCl2 reduction of COX-derived PGH2. The prostanoid product was quantified via enzyme immunoassay using a broadly specific antibody that binds to all the major prostaglandin compounds.

soybean LOX = target: T2, soybean LOX (Glycine max, UniProt P08170); experiment: inhibition of soybean lipoxygenase; assay type: biochemical; settings: for % inhibition of lipoxygenase: highest soluble concentration; for IC50: after 7 min of incubation, sodium linoleate 100 μM, pH 9.0, 28 °C
T2 construct: purchased Sigma (St. Louis, MO, USA)
T2 sequence (P08170 1-839): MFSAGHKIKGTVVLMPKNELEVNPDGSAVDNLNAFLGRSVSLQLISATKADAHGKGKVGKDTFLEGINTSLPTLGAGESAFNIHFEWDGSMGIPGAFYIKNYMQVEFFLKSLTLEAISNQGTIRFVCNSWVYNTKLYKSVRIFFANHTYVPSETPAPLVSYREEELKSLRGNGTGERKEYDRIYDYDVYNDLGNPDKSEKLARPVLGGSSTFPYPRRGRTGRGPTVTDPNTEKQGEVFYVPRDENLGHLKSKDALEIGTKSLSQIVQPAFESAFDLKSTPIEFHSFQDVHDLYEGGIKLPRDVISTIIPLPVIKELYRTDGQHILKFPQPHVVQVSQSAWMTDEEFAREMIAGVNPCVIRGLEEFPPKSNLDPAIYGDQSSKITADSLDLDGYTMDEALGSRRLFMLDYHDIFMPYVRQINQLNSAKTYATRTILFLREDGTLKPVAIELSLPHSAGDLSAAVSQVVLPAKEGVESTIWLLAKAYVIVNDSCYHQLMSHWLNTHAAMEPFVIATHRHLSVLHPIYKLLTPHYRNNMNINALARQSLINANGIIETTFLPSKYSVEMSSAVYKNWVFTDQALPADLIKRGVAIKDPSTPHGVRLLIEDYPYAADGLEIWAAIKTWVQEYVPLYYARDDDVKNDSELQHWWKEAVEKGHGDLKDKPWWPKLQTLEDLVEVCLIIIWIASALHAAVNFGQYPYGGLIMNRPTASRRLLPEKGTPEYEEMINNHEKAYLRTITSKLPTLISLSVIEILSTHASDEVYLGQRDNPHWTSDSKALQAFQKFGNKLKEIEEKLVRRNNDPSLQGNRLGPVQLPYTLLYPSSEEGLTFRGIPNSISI
Procedure: Soybean LOX, because of structural and functional similarities with mammalian LOXs, is commonly used for the study of anti-inflammatory agents.
The reaction mixture contained (final concentration) the test compounds, dissolved in ethanol (10–300 μM), or the solvent (control), soybean LOX, dissolved in 0.9% NaCl solution (250 u/mL) and sodium linoleate (100 μM), in Tris–HCl buffer, pH 9.0. […] For the estimation of the type of inhibition, the above experiments were repeated, using 1 mM sodium linoleate, which is higher than the saturating substrate concentration.

human recombinant COX-2 = test system: T3, human recombinant COX-2; experiment: COX Inhibitor Screening Assay kit, COX-2; assay type: biochemical; settings: compound 0.05 μM, arachidonic acid 0.1 μM
T3 construct: purchased Cayman Chemical Co., Ann Arbor, MI, USA
Procedure: COX inhibition was estimated using the “COX Inhibitor Screening Assay” kit (Cayman Chemical Co., Ann Arbor, MI, USA).
as §3

[4] = test system: rat hepatic microsomal membranes; experiment: Fe(II)-ascorbate induced lipid peroxidation of rat hepatic microsomal membranes; settings: 1 mM, after 45 min of incubation
Procedure: Enzymatically inactivated rat hepatic microsomal membranes, rich in polyunsaturated fatty acids, were used and peroxidation was induced by Fe(II)-ascorbate. Compounds 21 and 22, expected to exert antioxidant activity due to the tyrosine phenolic group, were tested.
The peroxidation of heat-inactivated (90°, 90 s) rat liver microsomal fraction was induced by ascorbic acid (0.2 mM) and ferrous sulphate (10 μΜ). The studied compounds, in dimethylsulfoxide, were added at 1 mM. Aliquots were taken from the incubation mixture (37 °C) for 45 min. Lipid peroxidation was assessed spectrophotometrically (535/600 nm) as 2-thiobarbituric acid reactive material.

| Compound | inhibition in vivo at 150 µmol/kg [1] [%] | melting point [°C] | IC50 (soybean LOX) [µM] | further results |
| --- | --- | --- | --- | --- |
| COC(=O)CCNC(=O)C(C)c1ccc(CC(C)C)cc1 (stereo not shown) [Compound 5a] | 14 |  |  |  |
| COC(=O)C1CCCN1C(=O)Cc1c[nH]c2ccccc12 (stereo not shown) [Compound 14a, 1-(2-(1H-indol-3-yl)acetyl)pyrrolidine-2-carboxylic acid (14) methyl ester] | 0 |  |  |  |
| COc1cc(COC(=O)CCNC(=O)C(C)c2cccc(C(=O)c3ccccc3)c2)cc(OC)c1OC (stereo not shown) [Compound 16, 3,4,5-Trimethoxybenzyl 3-(2-(3-benzoylphenyl)propanamido)propanoate] | 91 |  |  | stability (hydrolysis, TLC) [2]: not hydrolyzed; stability (hydrolysis, TLC) [3]: not hydrolyzed; COX-1 % Inhibition (ovine COX-1): 28%; % inhibition of lipoxygenase (soybean LOX; at 150 μΜ): 20%; % Edema Inhibition [1]: 91 *** % |
| COc1ccc2cc([C@H](C)C(=O)O)ccc2c1 [Naproxen] | 11 |  |  | COX-1 % Inhibition (ovine COX-1): 34%; COX-1 % Inhibition (ovine COX-1; listed as naproxen): mild activity; COX-2 % Inhibition (human recombinant COX-2): 17%; COX-2 % Inhibition (human recombinant COX-2; listed as naproxen): weak inhibitor |
| COc1ccc2cc(C(C)C(=O)N3CCCC3C(=O)OCc3cc(OC)c(OC)c(OC)c3)ccc2c1 (stereo not shown) [Compound 20, 3,4,5-Trimethoxybenzyl1-(2-(6-methoxynaphthalen-2-yl)propanoyl) pyrrolidine-2-carboxylate] | 37 | 50 to 53 |  | % inhibition of lipoxygenase (soybean LOX; at 100 μΜ): 40% |
| O=C(O)Cc1c[nH]c2ccccc12 [Indole-3-acetic acid, reference compound] | 0 |  |  | % Edema Inhibition [1]: inactive |
| COc1cc(COC(=O)C2CCCN2C(=O)C(C)c2ccc(CC(C)C)cc2)cc(OC)c1OC (stereo not shown) [Compound 18] | 49 | 85 to 87 | 83 |  |
| COc1ccc2cc([C@H](C)C(=O)NCCC(=O)OCc3cc(OC)c(OC)c(OC)c3)ccc2c1 [Compound 17, (S)-3,4,5-trimethoxybenzyl 3-(2-(6-methoxynaphthalen-2-yl)propanamido)propanoate] | 23 |  | 41 |  |
| COC(=O)C1CCCN1C(=O)C(C)c1ccc(CC(C)C)cc1 (stereo not shown) [Compound 8a] | 20 |  |  |  |
| CC(C(=O)O)c1cccc(C(=O)c2ccccc2)c1 (stereo not shown) [Ketoprofen] |  |  |  | COX-1 % Inhibition (ovine COX-1): 94%; COX-2 % Inhibition (human recombinant COX-2): 49% |
| COc1cc(COC(=O)C(Cc2ccc(O)cc2)NC(=O)C(C)c2cccc(C(=O)c3ccccc3)c2)cc(OC)c1OC (stereo not shown) [Compound 22, 3,4,5-Trimethoxybenzyl 2-(2-(3-benzoylphenyl)propanamido)-3-(4-hydroxyphenyl) propanoate] | 59 | 68 to 70 | 85 | effect against lipid peroxidation [4]: poor |
| COC(=O)C(C)NC(=O)Cc1c[nH]c2ccccc12 (stereo not shown) [Compound 13a] | 18 |  |  |  |
| COc1cc(COC(=O)C(C)NC(=O)Cc2c[nH]c3ccccc23)cc(OC)c1OC (stereo not shown) [Compound 23, 3,4,5-Trimethoxybenzyl 2-(2-(1H-indol-3-yl)acetamido)propanoate] | 40.5 |  |  | % inhibition of lipoxygenase (soybean LOX; at 150 μΜ): 15% |
| COc1cc(COC(=O)C2CCCN2C(=O)Cc2c[nH]c3ccccc23)cc(OC)c1OC (stereo not shown) [Compound 24, 3,4,5-Trimethoxybenzyl1-(2-(1H-indol-3-yl)acetyl)pyrrolidine-2carboxylate] | 0 | 58 to 60 | 128 |  |
| COc1cc(COC(=O)CCNC(=O)C(C)c2ccc(CC(C)C)cc2)cc(OC)c1OC (stereo not shown) [Compound 15, 3,4,5-Trimethoxybenzyl 3-(2-(4-isobutylphenyl)propanamido)propanoate] | 35 | 73 to 75 | 160 |  |
| COc1cc(COC(=O)C(Cc2ccc(O)cc2)NC(=O)C(C)c2ccc(CC(C)C)cc2)cc(OC)c1OC (stereo not shown) [Compound 21, 3,4,5-Trimethoxybenzyl3-(4-hydroxyphenyl)-2-(2(4-isobutylphenyl)propanamido) propanoate] | 67 | 86 to 88 | 64 | COX-1 % Inhibition (ovine COX-1): 51%; effect against lipid peroxidation [4]: poor |
| COc1cc(COC(=O)C2CCCN2C(=O)C(C)c2cccc(C(=O)c3ccccc3)c2)cc(OC)c1OC (stereo not shown) [Compound 19, 3,4,5-Trimethoxybenzyl 1-(2-(3-benzoylphenyl)propanoyl)pyrrolidine-2 carboxylate] | 51 |  | 140 |  |
| CC(C)Cc1ccc(C(C)C(=O)O)cc1 (stereo not shown) [Ibuprofen, reference compound] | 36 |  |  | COX-1 % Inhibition (ovine COX-1): 68%; % Edema Inhibition [1]: 36 ** % |
